From patent publication US6995187B1, “Peripheral cannabinoid receptor (CB2) selective ligands” (University of Connecticut, priority 1999, dated 2006)

How the values were obtained:
CB1 receptor = target: T1, CB1 receptor (Rattus norvegicus, UniProt P20272); assay: CB1 receptor binding assay ([3H] CP-55,940 displacement, rat forebrain membranes); conditions: CB2 (mouse spleen) versus CB1 (rat forebrain) binding affinity
T1 construct: membranes were prepared from rat forebrain membranes; from tissue; host or cells: rat forebrain
T1 sequence (P20272 whole entry): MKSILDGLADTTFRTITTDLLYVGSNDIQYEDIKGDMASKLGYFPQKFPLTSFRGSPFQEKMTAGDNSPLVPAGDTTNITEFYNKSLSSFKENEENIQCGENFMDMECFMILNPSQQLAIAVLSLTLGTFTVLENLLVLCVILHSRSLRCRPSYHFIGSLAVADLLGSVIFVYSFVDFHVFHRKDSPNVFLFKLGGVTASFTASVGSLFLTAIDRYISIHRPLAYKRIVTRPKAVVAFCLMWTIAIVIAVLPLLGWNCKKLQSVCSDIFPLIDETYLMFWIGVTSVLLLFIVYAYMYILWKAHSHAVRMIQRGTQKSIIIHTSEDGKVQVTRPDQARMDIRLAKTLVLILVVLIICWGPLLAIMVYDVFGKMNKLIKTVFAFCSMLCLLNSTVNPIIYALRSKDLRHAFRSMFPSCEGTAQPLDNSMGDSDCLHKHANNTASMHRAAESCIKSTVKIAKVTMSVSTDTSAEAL
Description: (§1) As used herein, “binding affinity” is represented by the IC50 value which is the concentration of an analog required to occupy the 50% of the total number (Bmax) of the receptors. The lower the IC50 value, the higher the binding affinity. […] The binding affinities (Ki) are expressed in nanomoles (nM).
The above articles are incorporated by reference herein.
(§2) Membranes, previously frozen at −80° C., were thawed on ice. To the stirred suspension was added three volumes of TME (25 mM Tris-HCl buffer, 5 mM MgCl2 and 1 mM EDTA) at a pH 7.4. The suspension was incubated at 4° C. for 30 min. At the end of the incubation, the membranes were pelleted and washed three times with TME.
(§3) The treated membranes were subsequently used in the binding assay described below. Approximately 30 μg of membranes were incubated in silanized 96-well microtiter plate with TME containing 0.1% essentially fatty acid-free bovine serum albumin (BSA), 0.8 nM [^3H] […] Radioactivity was detected using MicroScint 20 scintillation cocktail added directly to the dried filterplates, and the filterplates were counted using a Packard Instruments Top-Count. Nonspecific binding was assessed using 100 nM CP-55,940. […] CP-55,940, determined using buffer and 100 nM CP-55,940. The normalized data was analyzed using a 4-parameter nonlinear logistic equation to yield IC50 values.

CB2 receptor = target: T2, CB2 receptor (Mus musculus, UniProt P47936); assay: CB2 receptor binding assay ([3H] CP-55,940 displacement, mouse spleen membranes); conditions: 0.8 nM [3H] CP-55,940, read-out: CB2 affinity
T2 construct: membranes were prepared from frozen mouse spleen; from tissue; host or cells: mouse spleen
T2 sequence (P47936 whole entry): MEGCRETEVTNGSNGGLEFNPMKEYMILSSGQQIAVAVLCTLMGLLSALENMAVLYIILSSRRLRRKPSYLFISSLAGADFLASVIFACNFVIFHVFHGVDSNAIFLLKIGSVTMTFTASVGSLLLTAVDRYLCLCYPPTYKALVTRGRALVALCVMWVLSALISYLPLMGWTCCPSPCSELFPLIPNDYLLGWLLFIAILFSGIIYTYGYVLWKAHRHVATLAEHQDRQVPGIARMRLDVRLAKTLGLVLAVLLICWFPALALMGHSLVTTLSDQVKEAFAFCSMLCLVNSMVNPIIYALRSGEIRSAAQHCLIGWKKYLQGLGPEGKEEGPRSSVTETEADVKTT
Description: as §1, §2
as §3, with “values. […]” for “values.”

[1] = system: paw-withdrawal latency to radiant heat in male Sprague-Dawley rats; assay: Cannabinoid mediated antinociception: paw-withdrawal latency to a thermal nociceptive stimulus (Hargreaves method); type: in vivo; conditions: rat, subcutaneous injection in plantar surface of hindpaw, in DMSO, 50 μl; FIGS. 1–13
Description: Cannabinoid Mediated Antinociception.
Method. Male Sprague-Dawley rats (Harlan; Indianapolis, Ind.) 200–300 grams at time of testing, were maintained in a climate-controlled room on a 12-h light/dark cycle (lights on at 06:00 h) and food and water were available ad libitum. All of the testing was performed in accordance with the policies and recommendations of the International Association for the Study of Pain (IASP) and the National Institutes of Health (NIH) guidelines for the handling and use of laboratory animals and received approval from the Institutional Animal Care and Use Committee (IACUC) of the University of Arizona.
All drugs were dissolved in dimethyl sulfoxide (DMSO) and were injected subcutaneously in the plantar surface of the hindpaw in a total volume of 50 μl. DMSO given in hindpaw at this volume had no effect. The method of Hargreaves, K.; Dubner, R.; Brown, F.; Flores, C.; and Joris, J., A New Sensitive Method for Measuring Thermal Nociception in Cutaneous Hyperalgesia. […] Paw-withdrawal latency was determined by a photocell that halted both lamp and timer when the paw was withdrawn. The latency to withdrawal of the paw from the radiant heat source was determined both before and after drug or vehicle administration. […]

Compound | CB2 selectivity over CB1 (CB1 receptor) | Ki (CB2 receptor) | physiological effects in test animals including analgesia [1]
CCCCCCC(C)(C)c1cc(O)c2c(c1)oc(=O)c1ccc(OC)cc12 [AM1710, 3-(1,1-Dimethylheptyl)-1-hydroxy-9-methoxy-6H-dibenzo[b,d]pyran-6-one] | ~750 fold | 0.49 nM | –
CCCCCCC(C)(C)c1cc(O)c2c(c1)oc(=O)c1ccc(O)cc12 [AM1714, 3-(1,1-Dimethylheptyl)-1,9-dihydroxy-6H-dibenzo[b,d]pyran-6-one] | – | – | produced notable physiological effects in test animals including analgesia
